Measured values from patent publication US20260125388A1 (priority 2022, published 2026).
In brackets after ≈: the same amount, converted by molar mass. Like-named read-outs stand apart in the source and are kept apart here.

Assays:
HEK293 cells = assay: Cytotoxicity, CellTiter-Glo cell viability assay; type: cell-based, human; details: for Cytotoxicity LD50: HEK293 cells, CellTiter-Glo, Table 3; for LD50 HEK293: human kidney cells, Table 2
Description: Compounds with increased cytotoxicity can be identified using an in vitro cytotoxicity assay. Therefore, human embryonic kidney 293T (HEK293T) cell lines were purchased (ATCC) and cultured in 75 cm2 flasks (CellStar). Cells were grown in DMEM/High Glucose (Hyclone, #SH3024301) media to which non-essential amino acids (Hyclone, #SH30238.01), 10 mM HEPES (Hyclone, #SH302237.01), 5×106 units of penicillin and streptomycin (Hyclone, #SV30010), and 10% of heat inactivated fetal bovine serum (Gibco, #10082147) were added. Cells were harvested using 0.05% Trypsin (Hyclone, #SH3023601). The cell viability assay was evaluated using CellTiter-Glo™ Luminescent Cell Viability Assay Kit (Promega, Madison, WI), which contains luciferase and all its substrate except ATP. The controls for the cytotoxicity assay used were (E)-10-(bromotriphenylphosphoranyl)decyl 4-(4-(tert-butyl)phenyl)-4-oxobut-2-enoate (400 μM in DMSO, positive control) and DMSO (negative control). All luminescence readings were performed on a Tecan Infinite M1000 plate reader. Small volume transfers were performed on the Tecan Freedom EVO liquid handling system with a 100 nL pin tool transfer (V&P Scientific). Serial dilutions were done in 96-well polypropylene plates (Coming, #3365) and assays were conducted in 384-well white optical bottom plates. The assays were carried out in quadruplet in three independent runs. The data were normalized to the controls and if possible analyzed by nonlinear regression (GraphPad Prism).

[1] = parallel artificial membrane permeation assay at pH 7.4
Description: The artificial membrane was prepared by carefully pipetting 15 μL of the 5% (v/v) hexadecane in hexane solution to each of the wells of the donor plate. The plate was placed into a fume hood for 1 h to ensure complete evaporation of the hexane. After the hexane had evaporated, 300 μL of PBS with 5% (v/v) DMSO was added to each of the wells of the acceptor plate. The hexadecane treated donor plate was then placed on top of the acceptor plate taking care that the underside of the membrane is completely in contact with the solution in each of the acceptor wells. […] The lid was placed on the plates and the entire plate sandwich was placed into a closed humid environment. The container was then placed on a reciprocal shaker for agitation at about 100 rpm. The time at the beginning of the incubation was recorded, as this is a thermodynamic-based assay. The incubation was then allowed to continue for 18 h. The donor plate was removed and 50 μL of the acceptor solution was transferred to the UV plate. Drug solutions at the theoretical equilibrium concentration (100 μM) was also prepared and transferred to the UV plate. The absorbance of the solutions in the UV plate was then scanned from 250-600 nm with 1 nm steps and a 5 nm bandwidth. Log Pe was calculated as follows (Equation 1).

[2] = Aqueous solubility, shake flask in PBS buffer; type: physicochemical; details: for Aqueous solubility: pH 7.2; for solubility at 24 h: PBS buffer, aqueous buffer, thermodynamic from solid, read-out: Aqueous solubility (footnote b: mM); for solubility at 24 h / Aqueous solubility (footnote b: mM): pH 7.2, cells marked b
Description: 5-50 mg of compound was added to 500 μL of PBS buffer at pH 7.4. The pH was adjusted if necessary, using a 1M NaOH solution. The solutions were vortexed for 10 s, sonicated for 2 min and agitated with a horizontal shaker in a closed vial for 24 h. The mixtures were transferred to an Eppendorf tube and centrifuged for 5 min at 16000×g followed by filtration through […] cellulose acetate spin X centrifuge filter (Costar). 200 μL of filtrate was transferred to a new Eppendorf tube and 200 μL of methanol was added and then subsequent dilution was made in 50:50 methanol/PBS buffer water if necessary. After mixing, 50 μL were transferred into a 384 well plate (Coring UV star, 781801) for UV detection at 250-600 nm (Tecan M1000). The assay was carried out with three independent samples of each compound. The concentration of each solution was determined with a calibration curve in 50:50 methanol/PBS buffer water. Absorbance of corresponding methanol PBS blank were recorded and subtracted from the absorbance of calibration curve solutions and from the samples.

GABAA receptor = GABAA receptor binding, competition assay with [3H]-flunitrazepam and rat brain membranes; details: for GABAAR binding, % inhibition at 10 μM: Table 3
Description: GABAA receptor binding: Rat brain membranes were prepared from frozen tissue that was thawed on ice and homogenized on ice in 10 volumes of cold lysis buffer (50 mM Tris HCl, pH 7.4, containing protease inhibitor cocktail from Roche) using a Polytron homogenizer (6 pulses and 10 seconds per pulse). The homogenate was centrifuged at 1,000×g for 10 min at 4° C. to obtain the supernatant. The supernatant was then centrifuged at 40,000×g for 20 min, and the resulting supernatant decanted and replaced with the same ice-cold lysis buffer. Two or three additional rounds of homogenization-centrifugation were performed to ensure thorough homogenization and also to wash out endogenous ligands. The final pellet was resuspended in the same buffer and homogenized one last time. […] Total binding and nonspecific binding were determined with reference compound clonazepam. […] Scintillation cocktail is then melted onto the microwave-dried filters on a hot plate and radioactivity counted in a Microbeta counter. The data (n=6) were analyzed by nonlinear regression.

[3] = 3H-flunitrazepam, rat brain extract
[4] = [3H]-flunitrazepam, rat brain, Table 1
[5] = read-out: GABAAR binding (IC50), value in brackets, 3H-flunitrazepam, rat brain extract, Table 3, unit inferred

Row | Compound | Cytotoxicity LD50 (HEK293 cells) | Permeability (log Pe (cm/s)) [1] | Aqueous solubility [2] | GABAAR binding, % inhibition at 10 μM (GABAA receptor; [3]) | LD50 HEK293 (HEK293 cells) | % Inhibition at 10 μM (GABAA receptor; [4]) | IC50 (GABAA receptor; [5]) | solubility at 24 h [2] | IC50 (GABAA receptor; [4]) | Aqueous solubility (footnote b: mM) [2]
1 | CCOC(=O)c1ncn2c1C1(CCCCC1)N=C(c1ccccc1F)c1cc(Br)ccc1-2 [Compound 13] | >150 µM | −5.6 ± 0.04 cm/s | 54 ± 2 µM | 34 (n.d.) % |  |  |  |  |  | 
2 | O=C(O)c1ncn2c1C1(CCCC1)N=C(c1ccccc1F)c1ccccc1-2 [Compound 33, 6-(2-fluorophenyl)spiro[benzo[f]imidazo[1,5-a][1,4]diazepine-4,1′-cyclopentane]-3-carboxylic acid] |  |  |  |  | >400 µM | 4.7% |  |  |  | 
3 | O=C(O)c1ncn2c1C1(CCCC1)N=C(c1ccccc1F)c1cc(Cl)ccc1-2 [Compound 31, 8-chloro-6-(2-fluorophenyl)spiro[benzo[f]imidazo[1,5-a][1,4]diazepine-4,1′-cyclopentane]-3-carboxylic acid] |  |  |  |  | >400 µM | 47.8% |  |  |  | 
4 | CCOC(=O)c1ncn2c1C1(CC1)N=C(c1ccccc1F)c1cc(Br)ccc1-2 [Compound 9] | >120 µM | −5.1 ± 0.10 cm/s | 141 ± 20 µM | 94% |  |  | 87 nM |  |  | 
5 | O=C(O)c1ncn2c1C1(CC1)N=C(c1ccccc1F)c1cc(Br)ccc1-2 [Compound 26, 8-bromo-6-(2-fluorophenyl)spiro[benzo[f]imidazo[1,5-a][1,4]diazepine-4,1′-cyclopropane]-3-carboxylic acid] | >300 µM | −6.8 ± 0.09 cm/s |  | 97% | >400 µM | 97.0% | 9 nM | 8.2 mM (≈ 3500 µg/mL) | 9.1 nM | 
6 | O=C(O)c1ncn2c1C1(CCCCC1)N=C(c1ccccc1F)c1cc(Br)ccc1-2 [Compound 29, 8-bromo-6-(2-fluorophenyl)spiro[benzo[f]imidazo[1,5-a][1,4]diazepine-4,1′-cyclohexane]-3-carboxylic acid] | >300 µM | −6.6 ± 0.10 cm/s |  | 24 (n.d.) % | >400 µM | 1.9% |  |  |  | 46.9 ± 1.3 ^b mM
7 | CC1(C)N=C(c2ccccc2F)c2cc(Br)ccc2-n2cnc(C(=O)O)c21 [Compound 34, 8-bromo-6-(2-fluorophenyl)-4,4-dimethyl-4H-benzo[f]imidazo[1,5-a][1,4]diazepine-3-carboxylic acid] | >300 µM | −7.0 ± 0.22 cm/s |  | 74% | >400 µM | 74.4% | 4050 nM | 4.4 mM (≈ 1880 µg/mL) | 4050 nM | 
8 | CC1(C)N=C(c2ccccc2F)c2cc(Br)ccc2NC1=O [Compound 8] | >150 µM | −5.7 ± 0.01 cm/s | 319 ± 24 µM | 70% |  |  | 1250 nM |  |  | 
9 | O=C1Nc2ccc(Cl)cc2C(c2ccccc2F)=NC12CC2 [Compound 6] | >150 µM | −5.2 ± 0.15 cm/s | 39 ± 3 µM | 90% |  |  | 665 nM |  |  | 
10 | CCOC(=O)c1ncn2c1C1(CCC1)N=C(c1ccccc1F)c1cc(Br)ccc1-2 [Compound 11] | 106 ± 9 µM | −5.8 ± 0.10 cm/s | 144 ± 7 µM | 19 (n.d.) % |  |  |  |  |  | 
11 | O=C(O)c1ncn2c1C1(CC1)N=C(c1ccccc1F)c1cc(C3CC3)ccc1-2 [Compound 24, 8-cyclopropyl-6-(2-fluorophenyl)spiro[benzo[f]imidazo[1,5-a][1,4]diazepine-4,1′-cyclopropane]-3-carboxylic acid] | >300 µM | −6.4 ± 0.04 cm/s |  | 58% | >400 µM |  | 1830 nM |  |  | 12.8 ± 0.1 ^b mM
12 | O=C(O)c1ncn2c1C1(CC1)N=C(c1ccccc1F)c1cc(Cl)ccc1-2 [Compound 30, 8-chloro-6-(2-fluorophenyl)spiro[benzo[f]imidazo[1,5-a][1,4]diazepine-4,1′-cyclopropane]-3-carboxylic acid] | >300 µM | −6.6 ± 0.03 cm/s |  | 18 (n.d.) % | >400 µM |  |  |  |  | 36.2 ± 0.4 ^b mM
13 | O=C(O)c1ncn2c1C1(CCCC1)N=C(c1ccccc1F)c1cc(Br)ccc1-2 [Compound 28, 8-bromo-6-(2-fluorophenyl)spiro[benzo[f]imidazo[1,5-a][1,4]diazepine-4,1′-cyclopentane]-3-carboxylic acid] | >300 µM | −6.7 ± 0.04 cm/s |  | 2 (n.d.) % | >400 µM | 23.8% |  |  |  | 46.7 ± 0.6 ^b mM
14 | C#Cc1ccc2c(c1)C(c1ccccc1F)=NC1(CC1)c1c(C(=O)O)ncn1-2 [Compound 20, 8-ethynyl-6-(2-fluorophenyl)spiro[benzo[f]imidazo[1,5-a][1,4]diazepine-4,1′-cyclopropane]-3-carboxylic acid] | >300 µM | −6.7 ± 0.12 cm/s |  | 55% | >400 µM |  | 59 nM |  |  | 40.3 ± 0.5 ^b mM
15 | C#Cc1ccc2c(c1)C(c1ccccc1F)=NC1(CCCC1)c1c(C(=O)O)ncn1-2 [Compound 21, 8-ethynyl-6-(2-fluorophenyl)spiro[benzo[f]imidazo[1,5-a][1,4]diazepine-4,1′-cyclopentane]-3-carboxylic acid] |  |  |  |  | >400 µM | 0% |  |  |  | 
16 | O=C(O)c1ncn2c1C1(CC1)N=C(c1ccccc1F)c1ccccc1-2 [Compound 32, 6-(2-fluorophenyl)spiro[benzo[f]imidazo[1,5-a][1,4]diazepine-4,1′-cyclopropane]-3-carboxylic acid] | >300 µM | −7.0 ± 0.14 cm/s |  | 74% | >400 µM |  | 289 nM |  |  | 15.1 ± 0.1 ^b mM
17 | O=C(O)c1ncn2c1C1(CCCC1)N=C(c1ccccc1F)c1cc(C3CC3)ccc1-2 [Compound 25, 8-cyclopropyl-6-(2-fluorophenyl)spiro[benzo[f]imidazo[1,5-a][1,4]diazepine-4,1′-cyclopentane]-3-carboxylic acid] |  |  |  |  | >400 µM | 31.4% |  |  |  | 
18 | CCOC(=O)c1ncn2c1C1(CCCC1)N=C(c1ccccc1F)c1cc(Br)ccc1-2 [Compound 12] | 96 ± 11 µM | −6.0 ± 0.06 cm/s | 141 ± 19 µM | 74% |  |  | 6220 nM |  |  | 
19 | CCOC(=O)c1ncn2c1C(C)(C)N=C(c1ccccc1F)c1cc(Br)ccc1-2 [Compound 15] | >150 µM | −6.0 ± 0.12 cm/s | 103 ± 5 µM | 78% |  |  | 733 nM |  |  | 
20 | O=C1Nc2ccc(Br)cc2C(c2ccccc2F)=NC12CC2 [Compound 2] | >150 µM | −5.6 ± 0.05 cm/s | 321 ± 19 µM | 97% |  |  | 42 nM |  |  | 
